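Method: 48-hour compound exposure of cells in 96-well plates, five concentrations, linear interpolation of endpoints. TGI is the concentration that stops growth completely.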
System: M14 melanoma
Assay: NCI-60 cell line screen, 48 h

SMILES	TGI [µM]
O=c1onc2n1-c1cc(Cl)ccc1C(=S)N1CSCC21 (stereo unspecified)	> 100
O=C(O)C(O)C(O)C(O)C(O)CO (stereo unspecified)	> 100
CSc1nc2c(c(N(C)C)n1)C(O)n1c(nc3ccccc31)S2 (stereo unspecified)	> 100
COc1ccc(-c2nc3ccccc3c(=S)n2OC(C)=O)cc1	> 25
C[C@@H]1CCC2[C@@H](C)[C@@H](O[C@H]3O[C@@H]4O[C@@]5(C)CCC6[C@H](C)CCC([C@H]3C)[C@]64OO5)O[C@@H]3O[C@@]4(C)CCC1[C@@]23OO4 (stereo partly specified)	> 25
O=C(c1ccccc1)c1ccc2c(c1)NC(=O)c1ccccc1SSc1ccccc1C(=O)N2	> 100
CC1=C(C#N)c2nc3ccccc3n2C(=O)C1(C)CCO (stereo unspecified)	> 100
CCN(CC)c1ccc(/C=C/c2ccnc3ccccc23)cc1	> 100
COc1ccc(C(=O)NCCN(C)C)c2nc3ccccc3cc12	2.99
CC(C)(C)N=C(N)NC#N	> 100
N#CC(c1ccccc1)N(CCOCCOCCN(C(=O)c1ccccc1)C(C#N)c1ccccc1)C(=O)c1ccccc1 (stereo unspecified)	> 100
CN1CCN(Cc2cc3c(nn2)-c2ccccc2C3=O)CC1	> 100
Cc1ccc(/C=C2/N=C(N/N=C\C(O)C(O)C(O)C(O)CO)NC2=O)cc1 (stereo unspecified)	> 100
CCN(C(=O)N[C@@H](C)C(=O)N[C@@H](Cc1ccccc1)C(=O)OC)c1ccccc1	> 100
O=C(NN1C(=O)CS(=O)(=O)C1c1ccc(C(F)(F)F)cc1)c1ccncc1 (stereo unspecified)	> 100
O=C(CCSC1=NCCCN1)c1ccc(F)cc1	32.4
Cn1c2ccccc2c2c(=S)c3ccccc3ccc21	> 100
CCOc1c(OC)cc(-c2nc3n(n2)C(=O)C(CC)S3)cc1OC (stereo unspecified)	> 10
CC1OC(O[C@H]2C3C=CO[C@@H](OC4OC(CO)C(O)C(O)C4O)C3[C@@]3(COC(=O)/C=C/c4ccccc4)O[C@@H]23)C(O)C(O)C1O (stereo partly specified)	> 100
O=C1C(=Nc2ccc(Nc3ccccc3)cc2)Oc2ccccc21	5.38
Cc1nc2ccccc2c(-n2cccn2)c1CCn1cccn1	> 100
COc1cc2c(cc1OCCCN1C(=O)c3cccc4cccc(c34)C1=O)N=C[C@@H]1CCCN1C2=O	> 100
COC(=O)c1ccccc1CC1Cc2cccc(C)c2C1=O (stereo unspecified)	> 100
COc1ccc(/C=N/NC(=O)c2ccc(O)c(CN(C)C)c2)cc1	> 100

System: M19-MEL melanoma
Assay: NCI-60 cell line screen, 48 h

SMILES	TGI [µM]
C=CC1(C)CC(=O)C2(O)C(C)(O1)C(OC(C)=O)C(O)C1C(C)(C)CCC(O)C12C (stereo unspecified)	> 127
CN1Cc2c(nc(-c3ccccc3)c[n+]2[O-])N(C)C1	> 100
C=C(CN(C)C)C(=O)c1ccc(C(=O)C(=C)CN(C)C)cc1	> 100
O[C@H]1[C@H](O)[C@@H](O)CN2CC[C@H](O)[C@H]12	> 79.4
COc1cc(C2c3cc4c(cc3[C@@H](Nc3ccccc3)C3COC(=O)[C@H]23)OCO4)cc(OC)c1O (stereo partly specified)	16.6
O=C1NC(O)CCN1C1OC(CO)C(O)C1O (stereo unspecified)	> 250
COc1ccc(CC(N)=O)cc1OC	> 1250
CCOC(=O)CNC(=O)NC12CC3CC(CC(C3)C1)C2	369
O=C(NCCCl)O/N=C/c1cccnc1	> 100

System: PC-3 prostate
Assay: NCI-60 cell line screen, 48 h

SMILES	TGI [µM]
O=C1c2cccc3cccc(c23)C(=O)N1CCCNCCCCNCCCNCCCN1C(=O)c2cccc3cccc(c23)C1=O	1.76
O=c1onc2n1-c1cc(Cl)ccc1C(=S)N1CSCC21 (stereo unspecified)	> 100
O=C(O)C(O)C(O)C(O)C(O)CO (stereo unspecified)	> 100
CSc1nc2c(c(N(C)C)n1)C(O)n1c(nc3ccccc31)S2 (stereo unspecified)	> 100
COc1ccc(-c2nc3ccccc3c(=S)n2OC(C)=O)cc1	> 25
C[C@@H]1CCC2[C@@H](C)[C@@H](O[C@H]3O[C@@H]4O[C@@]5(C)CCC6[C@H](C)CCC([C@H]3C)[C@]64OO5)O[C@@H]3O[C@@]4(C)CCC1[C@@]23OO4 (stereo partly specified)	> 25
O=C(c1ccccc1)c1ccc2c(c1)NC(=O)c1ccccc1SSc1ccccc1C(=O)N2	> 100
CC1=C(C#N)c2nc3ccccc3n2C(=O)C1(C)CCO (stereo unspecified)	> 100
CCN(CC)c1ccc(/C=C/c2ccnc3ccccc23)cc1	> 100
COc1ccc(C(=O)NCCN(C)C)c2nc3ccccc3cc12	4.82
CC(C)(C)N=C(N)NC#N	> 100
N#CC(c1ccccc1)N(CCOCCOCCN(C(=O)c1ccccc1)C(C#N)c1ccccc1)C(=O)c1ccccc1 (stereo unspecified)	> 100
CN1CCN(Cc2cc3c(nn2)-c2ccccc2C3=O)CC1	> 100
Cc1ccc(/C=C2/N=C(N/N=C\C(O)C(O)C(O)C(O)CO)NC2=O)cc1 (stereo unspecified)	> 100
CCN(C(=O)N[C@@H](C)C(=O)N[C@@H](Cc1ccccc1)C(=O)OC)c1ccccc1	> 100
O=C(CCSC1=NCCCN1)c1ccc(F)cc1	31
Cn1c2ccccc2c2c(=S)c3ccccc3ccc21	> 100
CCOc1c(OC)cc(-c2nc3n(n2)C(=O)C(CC)S3)cc1OC (stereo unspecified)	> 10
CC1OC(O[C@H]2C3C=CO[C@@H](OC4OC(CO)C(O)C(O)C4O)C3[C@@]3(COC(=O)/C=C/c4ccccc4)O[C@@H]23)C(O)C(O)C1O (stereo partly specified)	> 100
O=C1C(=Nc2ccc(Nc3ccccc3)cc2)Oc2ccccc21	8.58
Cc1nc2ccccc2c(-n2cccn2)c1CCn1cccn1	> 100
COc1cc2c(cc1OCCCN1C(=O)c3cccc4cccc(c34)C1=O)N=C[C@@H]1CCCN1C2=O	> 100
COC(=O)c1ccccc1CC1Cc2cccc(C)c2C1=O (stereo unspecified)	77.8
COc1ccc(/C=N/NC(=O)c2ccc(O)c(CN(C)C)c2)cc1	> 100

System: SK-OV-3 ovarian
Assay: NCI-60 cell line screen, 48 h

SMILES	TGI [µM]
C=CC1(C)CC(=O)C2(O)C(C)(O1)C(OC(C)=O)C(O)C1C(C)(C)CCC(O)C12C (stereo unspecified)	> 120
CN1Cc2c(nc(-c3ccccc3)c[n+]2[O-])N(C)C1	> 100
C=C(CN(C)C)C(=O)c1ccc(C(=O)C(=C)CN(C)C)cc1	> 100
O[C@H]1[C@H](O)[C@@H](O)CN2CC[C@H](O)[C@H]12	> 100
O=C1c2cccc3cccc(c23)C(=O)N1CCCNCCCCNCCCNCCCN1C(=O)c2cccc3cccc(c23)C1=O	3.42
O=c1onc2n1-c1cc(Cl)ccc1C(=S)N1CSCC21 (stereo unspecified)	> 100
COc1cc(C2c3cc4c(cc3[C@@H](Nc3ccccc3)C3COC(=O)[C@H]23)OCO4)cc(OC)c1O (stereo partly specified)	4.87
O=C(O)C(O)C(O)C(O)C(O)CO (stereo unspecified)	> 100
CSc1nc2c(c(N(C)C)n1)C(O)n1c(nc3ccccc31)S2 (stereo unspecified)	43.6
O=C1NC(O)CCN1C1OC(CO)C(O)C1O (stereo unspecified)	> 250
COc1ccc(-c2nc3ccccc3c(=S)n2OC(C)=O)cc1	> 25
C[C@@H]1CCC2[C@@H](C)[C@@H](O[C@H]3O[C@@H]4O[C@@]5(C)CCC6[C@H](C)CCC([C@H]3C)[C@]64OO5)O[C@@H]3O[C@@]4(C)CCC1[C@@]23OO4 (stereo partly specified)	> 25
O=C(c1ccccc1)c1ccc2c(c1)NC(=O)c1ccccc1SSc1ccccc1C(=O)N2	> 100
CC1=C(C#N)c2nc3ccccc3n2C(=O)C1(C)CCO (stereo unspecified)	> 100
CCN(CC)c1ccc(/C=C/c2ccnc3ccccc23)cc1	> 100
COc1ccc(C(=O)NCCN(C)C)c2nc3ccccc3cc12	8.69
CC(C)(C)N=C(N)NC#N	> 100
N#CC(c1ccccc1)N(CCOCCOCCN(C(=O)c1ccccc1)C(C#N)c1ccccc1)C(=O)c1ccccc1 (stereo unspecified)	> 100
CN1CCN(Cc2cc3c(nn2)-c2ccccc2C3=O)CC1	> 100
